The supplement of paper PMC11061612

Legend:
Carboplatin = compound: C1CC(C1)(C(=O)[O-])C(=O)[O-].N.N.[Pt+2] [Carboplatin]; details: max 10 µM
In short: (§1)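 Cancer cell lines were plated in 1536-well plates in 7.5 μl of DMEM/F12 or RPMI with 10% FBS and kept 24 hours at 37°C and 5% CO2 before 72 hours of dosing, with final DMSO typically 0.2%. CellTiter-Glo 2.0 luminescence measured viability, scaled between blank-well and DMSO-well means. Dose responses were fitted to a two-parameter logistic curve with a non-linear mixed effects model. This fit gives the single-agent IC50.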

AZD5363 = compound: C1CN(CCC1(C(=O)N[C@@H](CCO)C2=CC=C(C=C2)Cl)N)C3=NC=NC4=C3C=CN4 [AZD5363]; details: max 10 µM
In short: as §1

AZD1775 = compound: C=CCn1c(=O)c2cnc(Nc3ccc(N4CCN(C)CC4)cc3)nc2n1-c1cccc(C(C)(C)O)n1 [AZD1775]; details: max 3 µM
In short: as §1

Trametinib = compound: CC(=O)Nc1cccc(-n2c(=O)n(C3CC3)c(=O)c3c(Nc4ccc(I)cc4F)n(C)c(=O)c(C)c32)c1 [Trametinib]; details: max 1 µM
In short: as §1

Paclitaxel = compound: CC(=O)O[C@H]1C(=O)[C@@]2(C)[C@H]([C@H](OC(=O)c3ccccc3)[C@]3(O)C[C@H](OC(=O)[C@H](O)[C@@H](NC(=O)c4ccccc4)c4ccccc4)C(C)=C1C3(C)C)[C@]1(OC(C)=O)CO[C@@H]1C[C@@H]2O [Paclitaxel]; details: max 3 µM
In short: as §1

Palbociclib = compound: CC(=O)c1c(C)c2cnc(Nc3ccc(N4CCNCC4)cn3)nc2n(C2CCCC2)c1=O [Palbociclib]; details: max 10 µM
In short: as §1

AZD1390 = compound: CC(C)n1c(=O)n(C)c2cnc3cc(F)c(-c4ccc(OCCCN5CCCCC5)nc4)cc3c21 [AZD1390]; details: max 0.3 µM
In short: as §1

Venetoclax = compound: CC1(C)CCC(CN2CCN(c3ccc(C(=O)NS(=O)(=O)c4ccc(NCC5CCOCC5)c([N+](=O)[O-])c4)c(Oc4cnc5[nH]ccc5c4)c3)CC2)=C(c2ccc(Cl)cc2)C1 [Venetoclax]; details: max 1 µM
In short: as §1

Dasatinib = compound: CC1=C(C(=CC=C1)Cl)NC(=O)C2=CN=C(S2)NC3=CC(=NC(=N3)C)N4CCN(CC4)CCO [Dasatinib]; details: max 2 µM
In short: as §1

SG3199 = compound: CC1=CN2[C@@H](C1)C=NC3=CC(=C(C=C3C2=O)OC)OCCCCCOC4=C(C=C5C(=C4)N=C[C@@H]6CC(=CN6C5=O)C)OC [SG3199]; details: max 0.001 µM
In short: as §1

AZD2811 = compound: CCN(CCO)CCCOc1ccc2c(Nc3cc(CC(=O)Nc4cccc(F)c4)[nH]n3)ncnc2c1 [AZD2811]; details: max 1 µM
In short: as §1

SN-38 = compound: CCc1c2c(nc3ccc(O)cc13)-c1cc3c(c(=O)n1C2)COC(=O)[C@]3(O)CC [SN-38]; details: max 0.3 µM
In short: as §1

AZD0156 = compound: CN(C)CCCOc1ccc(-c2ccc3ncc4c(c3c2)n(C2CCOCC2)c(=O)n4C)cn1 [AZD0156]; details: max 3 µM
In short: as §1

AZD4320 = compound: CN(CC[C@H](CSC1=CC=CC=C1)NC2=C(C=C(C=C2)S(=O)(=O)NC(=O)C3=CC=C(C=C3)N4CCC(CC4)[C@H](C5=CC=CC=C5C6=CC=C(C=C6)Cl)O)S(=O)(=O)C(F)(F)F)CCO [AZD4320]; details: max 1 µM
In short: as §1

Alisertib = compound: COc1cc(Nc2ncc3c(n2)-c2ccc(Cl)cc2C(c2c(F)cccc2OC)=NC3)ccc1C(=O)O [Alisertib]; details: max 10 µM
In short: as §1

Etoposide = compound: COc1cc([C@@H]2c3cc4c(cc3[C@@H](O[C@@H]3O[C@@H]5CO[C@@H](C)O[C@H]5[C@H](O)[C@H]3O)[C@H]3COC(=O)[C@H]23)OCO4)cc(OC)c1O [Etoposide]; details: max 10 µM
In short: as §1

Gefitinib = compound: COc1cc2ncnc(Nc3ccc(F)c(Cl)c3)c2cc1OCCCN1CCOCC1 [Gefitinib]; details: max 10 µM
In short: as §1

Prexasertib = compound: COc1cccc(OCCCN)c1-c1cc(Nc2cnc(C#N)cn2)n[nH]1 [Prexasertib]; details: max 1 µM
In short: as §1

Doxorubicin = compound: COc1cccc2c1C(=O)c1c(O)c3c(c(O)c1C2=O)C[C@@](O)(C(=O)CO)C[C@@H]3O[C@H]1C[C@H](N)[C@H](O)[C@H](C)O1 [Doxorubicin]; details: max 1 µM
In short: as §1

AZD5153 = compound: COc1nnc2ccc(N3CCC(c4ccc(OCCN5CCN(C)C(=O)[C@H]5C)cc4)CC3)nn12 [AZD5153]; details: max 1 µM
In short: as §1

Lapatinib = compound: CS(=O)(=O)CCNCc1ccc(-c2ccc3ncnc(Nc4ccc(OCc5cccc(F)c5)c(Cl)c4)c3c2)o1 [Lapatinib]; details: max 10 µM
In short: as §1

AZD8186 = compound: C[C@@H](Nc1cc(F)cc(F)c1)c1cc(C(=O)N(C)C)cc2c(=O)cc(N3CCOCC3)oc12 [AZD8186]; details: max 10 µM
In short: as §1

Crizotinib = compound: C[C@@H](Oc1cc(-c2cnn(C3CCNCC3)c2)cnc1N)c1c(Cl)ccc(F)c1Cl [Crizotinib]; details: max 10 µM
In short: as §1

Savolitinib = compound: C[C@@H](c1ccc2nccn2c1)n1nnc2ncc(-c3cnn(C)c3)nc21 [Savolitinib]; details: max 1 µM
In short: as §1

AZD6738 = compound: C[C@@H]1COCCN1C2=NC(=NC(=C2)C3(CC3)[S@](=N)(=O)C)C4=C5C=CNC5=NC=C4 [AZD6738]; details: max 10 µM
In short: as §1

AZD5991 = compound: Cc1c2c(nn1C)CSCc1cc(n(C)n1)CSc1cc(c3ccccc3c1)OCCCc1c(C(=O)O)n(C)c3c-2c(Cl)ccc13 [AZD5991]; details: max 1 µM
In short: as §1

AZD7648 = compound: Cc1cc2ncnn2cc1Nc1ncc2c(n1)n(C1CCOCC1)c(=O)n2C [AZD7648]; details: max 10 µM
In short: as §1

Taselisib = compound: Cc1nc(-c2cn3c(n2)-c2ccc(-c4cnn(C(C)(C)C(N)=O)c4)cc2OCC3)n(C(C)C)n1 [Taselisib]; details: max 10 µM
In short: as §1

Selumetinib = compound: Cn1cnc2c(F)c(Nc3ccc(Br)cc3Cl)c(C(=O)NOCCO)cc21 [Selumetinib]; details: max 10 µM
In short: as §1

SRA737 = compound: N#Cc1cnc(Nc2cc(NC[C@H]3CNCCO3)c(C(F)(F)F)cn2)cn1 [SRA737]; details: max 10 µM
In short: as §1

MK-2206 = compound: NC1(c2ccc(-c3nc4ccn5c(=O)[nH]nc5c4cc3-c3ccccc3)cc2)CCC1 [MK-2206]; details: max 10 µM
In short: as §1

Gemcitabine = compound: Nc1ccn([C@@H]2O[C@H](CO)[C@@H](O)C2(F)F)c(=O)n1 [Gemcitabine]; details: max 0.3 µM
In short: as §1

[1] = compound: O=C(Nc1ccc2[nH]nc(-c3ccncc3)c2c1)[C@@H]1CCN(CC(=O)N2CCN(c3ccc(-c4ncccn4)cc3)CC2)C1; details: max 5 µM
In short: as §1

Olaparib = compound: O=C(c1cc(Cc2n[nH]c(=O)c3ccccc23)ccc1F)N1CCN(C(=O)C2CC2)CC1 [Olaparib]; details: max 10 µM
In short: as §1

5-Fluorouracil = compound: O=c1[nH]cc(F)c(=O)[nH]1 [5-Fluorouracil]; details: max 20 µM
In short: as §1

Row | Cell Line | IC50, cell viability 72 h (Carboplatin) [nM] | IC50, cell viability 72 h (AZD5363) [nM] | IC50, cell viability 72 h (AZD1775) [nM] | IC50, cell viability 72 h (Trametinib) [nM] | IC50, cell viability 72 h (Paclitaxel) [nM] | IC50, cell viability 72 h (Palbociclib) [nM] | IC50, cell viability 72 h (AZD1390) [nM] | IC50, cell viability 72 h (Venetoclax) [nM] | IC50, cell viability 72 h (Dasatinib) [nM] | IC50, cell viability 72 h (SG3199) [nM] | IC50, cell viability 72 h (AZD2811) [nM] | IC50, cell viability 72 h (SN-38) [nM] | IC50, cell viability 72 h (AZD0156) [nM] | IC50, cell viability 72 h (AZD4320) [nM] | IC50, cell viability 72 h (Alisertib) [nM] | IC50, cell viability 72 h (Etoposide) [nM] | IC50, cell viability 72 h (Gefitinib) [nM] | IC50, cell viability 72 h (Prexasertib) [nM] | IC50, cell viability 72 h (Doxorubicin) [nM] | IC50, cell viability 72 h (AZD5153) [nM] | IC50, cell viability 72 h (Lapatinib) [nM] | IC50, cell viability 72 h (AZD8186) [nM] | IC50, cell viability 72 h (Crizotinib) [nM] | IC50, cell viability 72 h (Savolitinib) [nM] | IC50, cell viability 72 h (AZD6738) [nM] | IC50, cell viability 72 h (AZD5991) [nM] | IC50, cell viability 72 h (AZD7648) [nM] | IC50, cell viability 72 h (Taselisib) [nM] | IC50, cell viability 72 h (Selumetinib) [nM] | IC50, cell viability 72 h (SRA737) [nM] | IC50, cell viability 72 h (MK-2206) [nM] | IC50, cell viability 72 h (Gemcitabine) [nM] | IC50, cell viability 72 h [1] [nM] | IC50, cell viability 72 h (Olaparib) [nM] | IC50, cell viability 72 h (5-Fluorouracil) [nM]
1 | PANC-04-03 (Pancreatic Carcinoma) | > 10000 | > 10000 | > 3000 | 286 | 2340 | > 10000 | > 300 | > 1000 | > 2000 | > 1 | > 1000 | > 300 | > 3000 | > 1000 | > 10000 | > 10000 | > 10000 | 530 | > 1000 | > 1000 | > 10000 | > 10000 | > 10000 | > 1000 | > 10000 | > 1000 | > 10000 | 7660 | > 10000 | > 10000 | > 10000 | > 300 | 4530 | > 10000 | > 20000
2 | AMO-1 (Plasma Cell Myeloma) | > 10000 | 6030 | 633 | > 1000 | < 3 | > 10000 | > 300 | > 1000 | > 2000 | > 1 | > 1000 | 18.4 | > 3000 | > 1000 | 192 | 1680 | > 10000 | 8.82 | 169 | 36.6 | 6710 | > 10000 | 3000 | > 1000 | 3180 | 18.6 | > 10000 | 3410 | > 10000 | 2010 | 1150 | 15.3 | > 5000 | > 10000 | > 20000
3 | TK10 (Kidney Carcinoma) | > 10000 | > 10000 | 2870 | > 1000 | 715 | > 10000 | > 300 | > 1000 | 437 | > 1 | > 1000 | > 300 | > 3000 | > 1000 | > 10000 | > 10000 | 9990 | 159 | > 1000 | 903 | 8300 | > 10000 | > 10000 | > 1000 | > 10000 | > 1000 | > 10000 | 5340 | > 10000 | > 10000 | > 10000 | > 300 | > 5000 | > 10000 | > 20000
